Assay results taken from patent US20110091485A1, “MODULATION OF CELL JUNCTIONS” (priority 2007, published 2011).
Where a SMILES comes first, the peptide text is derived from it. [ ]: non-standard residue; d: D form. Nle = CCCC[C@H](N)C(=O)O

Assays:
Cx43 = Cx43 levels and Y247 phosphorylation in LA25 cells treated with ALLN (immunoblot); type: cell-based; conditions: LA25 cells at 35° C. (src active), ALLN 3 h
Procedure: FIG. 16. (A) Src activity leads to reduced levels of Cx43 in gap junctions unless rescued by ALLN treatment. LA25 cells grown at 40° C. or 35° C. (permissive) were untreated or treated with ALLN for 3 h and total Cx43 levels were determined by immunoblot. […] Cells grown at 35° C. were treated with ALLN for 3 h or untreated and pY247 and pY265 levels relative to total Cx43 were determined. In both A & B total cell lysates were harvested, blotted and probed (n=4 separate expts).

GJC = conditions: cited from earlier work
SFKs = experiment: SFK inhibition with PP2 in keratinocytes (Cx43 immunofluorescence, scratch wound); type: cell-based
Procedure: FIG. 13. […] Keratinocytes were pretreated with PP2 (5 μM, 2 h), scratch wounded and after 12 h were fixed in cold methoano/acetone and processed for immunofluorescence for total Cx43 (green). Cell nuclei were stained with DAPI (blue) and the scratched area is shown by an arrow.

Gp140 [1] = biological target: T1, Gp140 (Homo sapiens, UniProt Q9H5V8); type: cell-based; conditions: keratinocytes, P1C3 15 min, suramin 35 μM
T1 construct: endogenous in cells; host or cells: human keratinocytes (HKs)
Procedure: Zymosan or ActGp140 mAb were added to keratinocytes and incubated (30 min), washed, fixed (2% formaldehyde in cacodylate, 10 min) and permeabilized (0.5% Triton-X100, 5 min).
Human keratinocytes were grown in 30 μM Ca^+2 then treated with zymosan (20 μg/10^6 cells) for 30 min or 2 h, extracted with Triton X-100 (0.5% for 5 min) and fixed and stained with Abs against ZO-1 and afadin (AF-6).
Keratinocytes were treated (2 h) with ActGp140 mAb, washed, extracted with Triton X-100 detergent (0.5%, 5 min, 4° C.), fixed and stained with Abs against the indicated proteins.
Keratinocytes (grown in 30 μM Ca^+2) were untreated or treated with ActGp140 or NActGp140 mAbs for 1.5 hrs, washed, extracted with Triton X-100 (0.5% at 4° C. for 5 min) then stained.
(b-c) anti-Gp140 mAb (P1C3). (d) Same field as c stained with Abs against Gp140pY734.

Gp140 [2] = biological target: T1, Gp140; experiment: Phosphorylation of Gp140, SFK and PKCδ in keratinocytes (immunoblotting); type: cell-based; conditions: 5 min
Gp140 [3] = biological target: T1, Gp140; experiment: α-catenin localization in cell-cell contacts of keratinocytes grown in low Ca+2; type: cell-based; conditions: 30 μM Ca+2, suramin 35 μM, 3 hrs
Procedure: FIG. 25. Signals through Gp140/CDCP1 promote α-catenin in cell-cell contacts. Human keratinocytes were grown in low Ca^+2 (30 μM) in order to disassemble adherens junctions that contain cadherins and α-catenin. The keratinocytes were treated without (−Left panel) or with (+Right Panel) Gp140 siRNA to knockdown expression of Gp140. […] Arrows indicate minor subpopulation of cells where Gp140 was not knocked down surrounded by the majority of Gp140 was knocked down.
Signals through Gp140/CDCP1 promote α-catenin in cell-cell contacts. Human keratinocytes were grown in low Ca^+2 (30 μM) in order to disassemble adherens junctions that contain cadherins and α-catenin. The keratinocytes were treated without or with Gp140 siRNA to knockdown expression of Gp140. […] Arrows indicate minor subpopulation of cells where Gp140 was not knocked down surrounded by the majority of Gp140 was knocked down.

Gp140 [4] = biological target: T2, Gp140 (Mus musculus, UniProt Q5U462); conditions: cited from earlier work
T2 construct: from tissue; host or cells: mouse epidermis
T2 sequence (Q5U462 30-833): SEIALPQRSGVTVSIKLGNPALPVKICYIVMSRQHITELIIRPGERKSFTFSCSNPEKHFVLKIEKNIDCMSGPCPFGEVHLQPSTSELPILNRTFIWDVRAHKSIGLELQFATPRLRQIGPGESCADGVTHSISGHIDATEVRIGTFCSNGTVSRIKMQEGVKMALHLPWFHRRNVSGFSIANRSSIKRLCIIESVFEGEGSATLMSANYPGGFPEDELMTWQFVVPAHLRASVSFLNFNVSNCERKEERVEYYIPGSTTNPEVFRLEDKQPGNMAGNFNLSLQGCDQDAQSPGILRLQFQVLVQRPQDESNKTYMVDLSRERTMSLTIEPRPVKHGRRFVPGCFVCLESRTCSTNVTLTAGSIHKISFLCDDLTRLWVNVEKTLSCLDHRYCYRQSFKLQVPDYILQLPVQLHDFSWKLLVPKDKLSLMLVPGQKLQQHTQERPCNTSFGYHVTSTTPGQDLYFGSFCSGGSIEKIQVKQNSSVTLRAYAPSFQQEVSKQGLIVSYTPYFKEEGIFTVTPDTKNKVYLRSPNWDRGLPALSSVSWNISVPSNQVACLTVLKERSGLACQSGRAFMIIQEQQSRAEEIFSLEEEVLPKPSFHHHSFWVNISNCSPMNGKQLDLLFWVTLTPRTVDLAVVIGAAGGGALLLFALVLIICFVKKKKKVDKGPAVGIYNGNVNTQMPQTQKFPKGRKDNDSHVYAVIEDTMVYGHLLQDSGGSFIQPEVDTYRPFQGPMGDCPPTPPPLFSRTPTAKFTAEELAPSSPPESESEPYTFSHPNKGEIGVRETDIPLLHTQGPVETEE

T1 sequence (Q9H5V8 30-836): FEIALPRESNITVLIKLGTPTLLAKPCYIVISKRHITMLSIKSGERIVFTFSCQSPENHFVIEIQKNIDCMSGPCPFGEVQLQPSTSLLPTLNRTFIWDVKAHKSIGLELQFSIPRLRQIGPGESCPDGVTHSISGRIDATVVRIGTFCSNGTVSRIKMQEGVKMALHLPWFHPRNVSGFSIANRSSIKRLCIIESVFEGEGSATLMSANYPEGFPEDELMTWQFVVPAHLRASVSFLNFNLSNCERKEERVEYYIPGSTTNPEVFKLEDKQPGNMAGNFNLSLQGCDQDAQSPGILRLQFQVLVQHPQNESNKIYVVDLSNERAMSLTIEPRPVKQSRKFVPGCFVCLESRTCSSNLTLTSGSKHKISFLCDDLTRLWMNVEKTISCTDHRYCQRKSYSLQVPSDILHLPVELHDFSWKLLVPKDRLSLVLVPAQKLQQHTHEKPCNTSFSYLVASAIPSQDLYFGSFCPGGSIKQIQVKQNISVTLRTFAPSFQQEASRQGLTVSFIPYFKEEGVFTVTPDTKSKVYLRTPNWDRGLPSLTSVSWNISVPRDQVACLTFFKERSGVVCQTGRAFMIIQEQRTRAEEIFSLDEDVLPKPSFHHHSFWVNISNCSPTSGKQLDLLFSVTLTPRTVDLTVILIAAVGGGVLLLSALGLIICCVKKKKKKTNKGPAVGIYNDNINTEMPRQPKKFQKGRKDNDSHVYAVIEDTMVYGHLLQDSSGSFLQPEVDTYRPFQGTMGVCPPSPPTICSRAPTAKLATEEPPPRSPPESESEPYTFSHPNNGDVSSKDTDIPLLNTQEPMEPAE

Structure (SMILES): CCCC[C@@H](C=O)NC(=O)[C@H](CC(C)C)NC(=O)[C@H](CC(C)C)NC(C)=O [ALLN] (Ac-Leu-Leu-[Nle]-aldehyde)
- Y247 phosphorylation relative to total Cx43 (Cx43): increases the levels of Y247 phosphorylation relative to total Cx43

Structure (SMILES): CC1(C)[C@@H](OC(=O)CCC(=O)O)CC[C@]2(C)[C@H]3C(=O)C=C4[C@@H]5C[C@@](C)(C(=O)O)CC[C@]5(C)CC[C@@]4(C)[C@]3(C)CC[C@@H]12 [CBX, 18α-carbenoxalone]
- wound outgrowth (GJC): prevents wound outgrowth when applied before, but not after wounding

Structure (SMILES): CC(C)(C)n1nc(-c2ccc(Cl)cc2)c2c(N)ncnc21 [PP2]
- gap junctional density at wound cell-cell interfaces (total Cx43) (SFKs; PP2 5 μM, 2 h pretreatment, scratch wound, 12 h): increases gap junctional density at wound cell-cell interfaces
- cell surface Gp140, junctional Cx43 and dye transfer (SFKs; keratinocytes): dramatic increases in cell surface Gp140 and junctional Cx43 and dye transfer

Structure (SMILES): Cc1ccc(C(=O)Nc2ccc(S(=O)(=O)O)c3cc(S(=O)(=O)O)cc(S(=O)(=O)O)c23)cc1NC(=O)c1cccc(NC(=O)Nc2cccc(C(=O)Nc3cc(C(=O)Nc4ccc(S(=O)(=O)O)c5cc(S(=O)(=O)O)cc(S(=O)(=O)O)c45)ccc3C)c2)c1 [suramin]
- phosphorylation and assembly of Gp140 in detergent-resistant membrane clusters in cell-cell contacts (Gp140 [1]): increases phosphorylation and assembly of Gp140 in detergent-resistant Gp140 membrane clusters
- PKC activity determined by phosphorylation of VaspS157 (Gp140 [2]): increased
- phosphorylation of Gp140Y734, SFKY416 and PKCdY311 by SFKs (Gp140 [2]; suramin 35 μM): increased phosphorylation
- α-catenin in cell-cell contacts (Gp140 [3]): dramatic accumulation of α-catenin in cell-cell contacts
- phosphorylation and cleavage of Gp140 in mouse epidermis (Gp140 [4]): induces phosphorylation and proteolytic cleavage of Gp140 to p80
